Where “and” joins values, the source holds several entries; their conditions need not be identical. Identical values can stand only once.
Each compound was assayed against Nonstructural protein 3 (Zika virus, UniProt A0A024AXB9) (assay: Functional biochemical assay to identify treatments for viral infectious disease that targets Zika NS2B-NS3 protease. Utilizing a direct enzyme activity measurement method, reading the fluorescence intensity is used to characterize the relative potency of inhibitors as IC50.).
Nonstructural protein 3, sequence (A0A024AXB9 whole entry): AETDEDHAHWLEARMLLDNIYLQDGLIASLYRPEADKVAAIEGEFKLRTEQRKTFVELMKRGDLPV
Parameters: species or system PRVABC59
In the case of `OC1(c2ccccc2)CCN(Cc2c[nH]c3ccccc23)CC1`, the IC50 is reported as > 99.5 µM.
With `CCOc1cc(COc2cccnc2F)nc(N2CCNCC2)n1` the IC50 was > 99.5 µM.
For `C[C@@H](NC(=O)c1cc(Cl)ccc1NS(=O)(=O)c1ccc(Oc2ccccc2Cl)cc1)[C@H]1CCCO1`, the IC50 was > 99.5 µM.
For `CCc1cc(C)nc(C2CCN(Cc3c[nH]c4ccccc34)CC2)n1`, the IC50 was 59.4 µM.
`O=C(c1cc(Cl)ccc1NS(=O)(=O)c1ccc(Oc2ccccc2Cl)cc1)N1CC[C@H](CO)C1` was tested, and the IC50 was > 99.5 µM.
With `Cn1nccc1C1CCN(Cc2c[nH]c3ccccc23)CC1` the IC50 was > 99.5 µM.
In the case of `Cc1ccc(CNC(=O)c2cc(Cl)ccc2NS(=O)(=O)c2ccc(Oc3ccccc3Cl)cc2)s1`, the IC50 is reported as > 99.5 µM.
`CC[C@H]1CCN(C(=O)c2cc(Cl)ccc2NS(=O)(=O)c2ccc(Oc3ccccc3Cl)cc2)C1` was tested, and the IC50 was > 99.5 µM.
`CNc1cc(COc2cccnc2F)nc(N2CCNCC2)n1` was tested, and the IC50 was > 99.5 µM.
With `CCC1CCN(Cc2c[nH]c3ccccc23)CC1` the IC50 was > 99.5 µM.
In the case of `c1ccc(COC2CCN(Cc3c[nH]c4ccccc34)CC2)cc1`, the IC50 is reported as > 99.5 µM.
In the case of `CC(C)(C)OC(=O)Cn1ccnc(N2CC[C@@H](CO)C2)c1=O`, the IC50 is reported as > 99.5 µM.
`C[C@H]1COCCN1C(=O)c1cc(Cl)ccc1NS(=O)(=O)c1ccc(Oc2ccccc2Cl)cc1` was tested, and the IC50 was > 99.5 µM.
`COC[C@@H](C)CNC(=O)c1cc(Cl)ccc1NS(=O)(=O)c1ccc(Oc2ccccc2Cl)cc1` was tested, and the IC50 was > 99.5 µM.
Work on `NC[C@H]1C[C@@H](NC(=O)[C@@H](NC(=O)OCc2ccccc2)c2ccc(OCc3ccccc3)cc2)C1` yielded an IC50 of 85.2 µM.
For `O=C(NC[C@H]1CCCO1)c1cc(Cl)ccc1NS(=O)(=O)c1ccc(Oc2ccccc2Cl)cc1`, the IC50 was > 99.5 µM.
`O[C@H]1CCCN(Cc2c[nH]c3ccccc23)C1` was tested, and the IC50 was > 99.5 µM.
In the case of `CC(C)Oc1cc(COc2cccnc2F)nc(N2CCNCC2)n1`, the IC50 is reported as > 99.5 µM.
In the case of `NCc1cccc(NC(=O)c2cccc(NC(=O)OCc3ccccc3)n2)c1`, the IC50 is reported as > 99.5 µM.
For `c1ccc2c(CN3CCC(c4ccn[nH]4)CC3)c[nH]c2c1`, the IC50 was 66.2 µM.
`CCCN(C)C(=O)c1cc(Cl)ccc1NS(=O)(=O)c1ccc(Oc2ccccc2Cl)cc1` was tested, and the IC50 was > 99.5 µM.
In the case of `CCCCCNC(=O)c1cc(Cl)ccc1NS(=O)(=O)c1ccc(Oc2ccccc2Cl)cc1`, the IC50 is reported as > 99.5 µM.
For `N[C@H]1CC[C@H](NC(=O)[C@@H](NC(=O)OCc2ccccc2)c2ccc(OCc3ccccc3)cc2)C1`, the IC50 was > 99.5 µM.
`O=C(N[C@@H](C(=O)NC1CNC1)c1ccc(OCc2ccccc2)cc1)OCc1ccccc1` was tested, and the IC50 was > 99.5 µM.
`NC[C@H]1CCN1C(=O)[C@@H](NC(=O)OCc1ccccc1)c1ccc(OCc2ccccc2)cc1` was tested, and the IC50 was > 99.5 µM.
`CC(C)Oc1ccc(S(=O)(=O)Nc2ccc(Cl)cc2C(=O)O)cc1` was tested, and the IC50 was > 99.5 µM.
With `NCc1cccc(NC(=O)[C@@H](NC(=O)OCc2ccccc2)C2CCCCC2)c1` the IC50 was > 99.5 µM.
`NCc1cccc(NC(=O)[C@@H](NC(=O)OCc2ccccc2)c2ccc(F)c(F)c2)c1` was tested, and the IC50 was > 99.5 µM.
`OCCOc1cc(COc2cccnc2F)nc(N2CCNCC2)n1` was tested, and the IC50 was > 99.5 µM.
In the case of `O=S(=O)(c1c[nH]c2ccccc12)N1CCC(c2cnc3ccc[nH]c2-3)CC1`, the IC50 is reported as > 99.5 µM.
In the case of `NCc1cccc(NC(=O)[C@@H](NC(=O)OCc2ccccc2)c2ccc(F)cc2F)c1`, the IC50 is reported as > 99.5 µM.
Compound `CC(C)c1ccc([C@@H](NC(=O)OCc2ccccc2)C(=O)Nc2cccc(CN)c2)cc1` has an IC50 of 87.7 µM.
In the case of `c1ccc2c(CN3CCC(c4c[nH]c5cccnc45)CC3)n[nH]c2c1`, the IC50 is reported as 42.9 µM.
For `O=C(N[C@@H](C(=O)NC1CCNCC1)c1ccc(OCc2ccccc2)cc1)OCc1ccccc1`, the IC50 was > 99.5 µM.
In the case of `C[C@@H](N)c1cccc(NC(=O)[C@@H](NC(=O)OCc2ccccc2)c2ccc(OCc3ccccc3)cc2)c1`, the IC50 is reported as 33.6 µM.
In the case of `c1cnc(C2CCN(Cc3c[nH]c4ccccc34)CC2)nc1`, the IC50 is reported as 50.6 µM.
With `COc1cccc(C2CCN(Cc3c[nH]c4ccccc34)CC2)c1` the IC50 was 64.3 µM.
`c1ccc2c(CN3CCC(c4cscn4)CC3)c[nH]c2c1` showed an IC50 of 22.1 µM.
For `O[C@@H]1CN(Cc2c[nH]c3ccccc23)CC[C@@H]1c1ccccc1`, the IC50 was 47.4 µM.
`c1cncc(C2CCN(Cc3c[nH]c4ccccc34)CC2)c1` gave an IC50 of 32.6 µM.
`NCc1cccc(NC(=O)[C@H]2c3ccccc3CCN2C(=O)OCc2ccccc2)c1` was tested, and the IC50 was > 99.5 µM.
In the case of `NC(=O)[C@H]1CCCN(Cc2c[nH]c3ccccc23)C1`, the IC50 is reported as > 99.5 µM.
For `NCc1cccc(NC(=O)[C@@H](NC(=O)OCc2ccccc2)C(C2CCC2)C2CCC2)c1`, the IC50 was 66.3 µM and 82.1 µM.
For `c1cc(CN2CCC(c3c[nH]c4cccnc34)CC2)c2[nH]ncc2c1`, the IC50 was > 99.5 µM.
With `N[C@@H]1CC[C@H](NC(=O)[C@@H](NC(=O)OCc2ccccc2)c2ccc(OCc3ccccc3)cc2)C1` the IC50 was > 99.5 µM.
`NCc1cccc(NC(=O)[C@H]2CCCN(C(=O)OCc3ccccc3)C2)c1` was tested, and the IC50 was > 99.5 µM.
In the case of `OC1CCN(Cc2c[nH]c3ccccc23)CC1`, the IC50 is reported as > 99.5 µM.
In the case of `O=C(Nc1ccc(Cl)cc1C(=O)O)c1ccc(Oc2ccccc2Cl)cc1`, the IC50 is reported as > 99.5 µM.
Work on `c1ccc2c(CN3CCC(c4cnco4)CC3)c[nH]c2c1` yielded an IC50 of 56.1 µM.
`c1ccc2sc(C3CCN(Cc4c[nH]c5ccccc45)CC3)nc2c1` showed an IC50 of 9.89 µM.
`NCc1cccc(NC(=O)[C@@H](NC(=O)OCc2ccccc2)c2cc(F)cc(F)c2)c1` was tested, and the IC50 was > 99.5 µM.
In the case of `CC(=O)N[C@@H](C(=O)Nc1cccc(CN)c1)c1ccc(OCc2ccccc2)cc1`, the IC50 is reported as > 99.5 µM.
`NCc1cccc(NC(=O)[C@H]2c3ccc(OCc4ccccc4)cc3CCN2C(=O)OCc2ccccc2)c1` gave an IC50 of 17.3 µM.
With `CC(C)(C)Oc1ccc(S(=O)(=O)Nc2ccc(Cl)cc2C(=O)O)cc1` the IC50 was > 99.5 µM.
In the case of `CCOc1ccc([C@@H](NC(=O)OCc2ccccc2)C(=O)Nc2cccc(CN)c2)cc1`, the IC50 is reported as > 99.5 µM.
`O=C(c1cc(Cl)ccc1NS(=O)(=O)c1ccc(Oc2ccccc2Cl)cc1)N1CCC[C@@H]1CO` was tested, and the IC50 was > 99.5 µM.
For `O=c1c(N2CC[C@H](CO)C2)nccn1C1CC1`, the IC50 was > 99.5 µM.
In the case of `c1cc(C2CCN(Cc3c[nH]c4ccccc34)CC2)c2ccncc2c1`, the IC50 is reported as 24.6 µM.
`O=C(O)c1cc(Cl)ccc1NCc1ccc(Oc2ccccc2Cl)cc1` was tested, and the IC50 was > 99.5 µM.
For `N[C@H]1CC[C@@H](NC(=O)[C@@H](NC(=O)OCc2ccccc2)c2ccc(OCc3ccccc3)cc2)C1`, the IC50 was > 99.5 µM.
`COc1ccc(S(=O)(=O)Nc2ccc(Cl)cc2C(=O)O)cc1` was tested, and the IC50 was > 99.5 µM.
In the case of `O=C(c1cc(Cl)ccc1NS(=O)(=O)c1ccc(Oc2ccccc2Cl)cc1)N1CCC[C@H](O)C1`, the IC50 is reported as > 99.5 µM.
For `N#CC1(c2ccccc2)CCN(Cc2c[nH]c3ccccc23)CC1`, the IC50 was > 99.5 µM.
`CCn1ccnc(N[C@@H](Cc2c[nH]c3ccccc23)C(N)=O)c1=O` was tested, and the IC50 was > 99.5 µM.
With `NCc1cccc(NC(=O)[C@H]2COC3(CCOCC3)N2C(=O)OCc2ccccc2)c1` the IC50 was > 99.5 µM.
For `NCc1cccc(NC(=O)[C@@H](NC(=O)OCc2ccccc2)c2ccc(Cl)cc2)c1`, the IC50 was > 99.5 µM.
With `FC(F)(F)c1ccccc1C1CCN(Cc2c[nH]c3ccccc23)CC1` the IC50 was > 99.5 µM.
`c1ccc2oc(C3CCN(Cc4c[nH]c5ccccc45)CC3)nc2c1` showed an IC50 of 60.6 µM.
In the case of `NCc1cccc(NC(=O)Cc2ccc(OCc3ccccc3)cc2)c1`, the IC50 is reported as > 99.5 µM.
`c1ccc2c(CN3CCC(n4cccn4)CC3)c[nH]c2c1` was tested, and the IC50 was > 99.5 µM.
Work on `NS(=O)(=O)c1ccc(C2CCN(Cc3c[nH]c4ccccc34)CC2)cc1` yielded an IC50 of 26.4 µM.
`O=C(N[C@@H](C(=O)N[C@H]1CCCNC1)c1ccc(OCc2ccccc2)cc1)OCc1ccccc1` was tested, and the IC50 was > 99.5 µM.
With `CCn1ccnc(N(C)[C@@H](CO)Cc2c[nH]c3ccccc23)c1=O` the IC50 was > 99.5 µM.
`NCc1ccc2c(c1)N(C(=O)[C@@H](NC(=O)OCc1ccccc1)c1ccc(OCc3ccccc3)cc1)CC2` was tested, and the IC50 was 12.3 µM.
For `c1ccc2c(CN3CCCCC3)c[nH]c2c1`, the IC50 was > 99.5 µM.

From ChEMBL document CHEMBL5604062, “ASAP - ZIKV NS2B-NS3 protease fluorescence dose response” (2024)
